Test results: PubChem BioAssay (NCI)
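The compound was tested at five concentrations on cells cultured in 96-well plates, with a 48-hour exposure period. TGI denotes the concentration required for complete inhibition of growth.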

Tests used:
Experiment in all cases: inhibition of tumour cell growth, NCI panel, 48 h
OVCAR-4 ovarian = system: OVCAR-4 ovarian
DMS 114 small cell lung = system: DMS 114 small cell lung
HL-60(TB) leukemia = system: HL-60(TB) leukemia
M14 melanoma = system: M14 melanoma
KM12 colon = system: KM12 colon
HOP-18 NSCLC = system: HOP-18 NSCLC
786-0 renal = system: 786-0 renal
MOLT-4 leukemia = system: MOLT-4 leukemia
NCI-H23 lung = system: NCI-H23 lung
A549 NSCLC = system: A549 NSCLC
HT29 colon = system: HT29 colon
SN12C renal = system: SN12C renal
SF-268 CNS = system: SF-268 CNS
HCC-2998 colon = system: HCC-2998 colon
SNB-19 CNS = system: SNB-19 CNS
IGROV1 ovarian = system: IGROV1 ovarian
SK-OV-3 ovarian = system: SK-OV-3 ovarian
LOX IMVI melanoma = system: LOX IMVI melanoma
SW-620 colon = system: SW-620 colon
OVCAR-5 ovarian = system: OVCAR-5 ovarian
ACHN renal = system: ACHN renal
SF-295 CNS = system: SF-295 CNS
KM20L2 colon = system: KM20L2 colon
HOP-62 NSCLC = system: HOP-62 NSCLC
EKVX NSCLC = system: EKVX NSCLC
RXF-631 renal = system: RXF-631 renal
SK-MEL-2 melanoma = system: SK-MEL-2 melanoma
XF 498 CNS = system: XF 498 CNS
SNB-75 CNS = system: SNB-75 CNS
HOP-92 NSCLC = system: HOP-92 NSCLC
A498 renal = system: A498 renal
UACC-62 melanoma = system: UACC-62 melanoma
HCT-15 colon = system: HCT-15 colon
MALME-3M melanoma = system: MALME-3M melanoma
OVCAR-8 ovarian = system: OVCAR-8 ovarian
UACC-257 melanoma = system: UACC-257 melanoma
CAKI-1 renal = system: CAKI-1 renal
OVCAR-3 ovarian = system: OVCAR-3 ovarian
UO-31 renal = system: UO-31 renal
SK-MEL-5 melanoma = system: SK-MEL-5 melanoma
HCT-116 colon = system: HCT-116 colon
SF-539 CNS = system: SF-539 CNS
CCRF-CEM leukemia = system: CCRF-CEM leukemia
M19-MEL melanoma = system: M19-MEL melanoma
DLD-1 colon = system: DLD-1 colon
SK-MEL-28 melanoma = system: SK-MEL-28 melanoma
SNB-78 CNS = system: SNB-78 CNS
K-562 leukemia = system: K-562 leukemia
TK-10 renal = system: TK-10 renal
SR leukemia = system: SR leukemia
LXFL 529 NSCLC = system: LXFL 529 NSCLC
DMS 273 small cell lung = system: DMS 273 small cell lung
U251 CNS = system: U251 CNS
NCI-H460 lung = system: NCI-H460 lung
RXF 393 renal = system: RXF 393 renal
COLO 205 colon = system: COLO 205 colon
NCI-H522 lung = system: NCI-H522 lung
NCI-H226 lung = system: NCI-H226 lung
RPMI-8226 leukemia = system: RPMI-8226 leukemia

## Cn1cc(NC(=O)c2cc(NC(=O)CCCCCCCC(=O)Nc3cc(C(=O)Nc4cc(C(=O)NCCC(=N)N)n(C)c4)n(C)c3)cn2C)cc1C(=O)NCCC(=N)N
OVCAR-4 ovarian
  TGI: > 100 µM
DMS 114 small cell lung
  TGI: 11.9 µM
HL-60(TB) leukemia
  TGI: 16.3 µM
M14 melanoma
  TGI: > 100 µM
KM12 colon
  TGI: 20 µM
HOP-18 NSCLC
  TGI: > 100 µM
786-0 renal
  TGI: > 100 µM
MOLT-4 leukemia
  TGI: 66.7 µM
NCI-H23 lung
  TGI: 33.7 µM
A549 NSCLC
  TGI: 36.8 µM
HT29 colon
  TGI: > 100 µM
SN12C renal
  TGI: 41 µM
SF-268 CNS
  TGI: 45.9 µM
HCC-2998 colon
  TGI: 30.2 µM
SNB-19 CNS
  TGI: > 100 µM
IGROV1 ovarian
  TGI: 25.3 µM
SK-OV-3 ovarian
  TGI: > 100 µM
LOX IMVI melanoma
  TGI: 28.8 µM
SW-620 colon
  TGI: > 100 µM
OVCAR-5 ovarian
  TGI: > 100 µM
ACHN renal
  TGI: > 100 µM
SF-295 CNS
  TGI: > 100 µM
KM20L2 colon
  TGI: > 100 µM
HOP-62 NSCLC
  TGI: > 100 µM
EKVX NSCLC
  TGI: 68.2 µM
RXF-631 renal
  TGI: > 100 µM
SK-MEL-2 melanoma
  TGI: 27.9 µM
XF 498 CNS
  TGI: 56.1 µM
SNB-75 CNS
  TGI: 70.8 µM
HOP-92 NSCLC
  TGI: > 100 µM
A498 renal
  TGI: 56.7 µM
UACC-62 melanoma
  TGI: 36.8 µM
HCT-15 colon
  TGI: > 100 µM
MALME-3M melanoma
  TGI: 20.1 µM
OVCAR-8 ovarian
  TGI: 42.9 µM
UACC-257 melanoma
  TGI: 23.8 µM
CAKI-1 renal
  TGI: 47.5 µM
OVCAR-3 ovarian
  TGI: 65.7 µM
UO-31 renal
  TGI: > 100 µM
SK-MEL-5 melanoma
  TGI: 22.3 µM
HCT-116 colon
  TGI: 42.3 µM
SF-539 CNS
  TGI: 33.1 µM
CCRF-CEM leukemia
  TGI: 86.1 µM
M19-MEL melanoma
  TGI: 16.7 µM
DLD-1 colon
  TGI: > 100 µM
SK-MEL-28 melanoma
  TGI: 26.3 µM
SNB-78 CNS
  TGI: 93.5 µM
K-562 leukemia
  TGI: > 100 µM
TK-10 renal
  TGI: 36.7 µM
SR leukemia
  TGI: 92.7 µM
LXFL 529 NSCLC
  TGI: 28.8 µM
DMS 273 small cell lung
  TGI: 25 µM
U251 CNS
  TGI: 44.6 µM
NCI-H460 lung
  TGI: 22 µM
RXF 393 renal
  TGI: 41.3 µM
COLO 205 colon
  TGI: 26 µM

## CCOc1ccc(/C=C2/C(=O)N=C(N)N=C2N)cc1OCC
OVCAR-4 ovarian
  TGI: > 100 µM
DMS 114 small cell lung
  TGI: > 100 µM
HL-60(TB) leukemia
  TGI: > 100 µM
M14 melanoma
  TGI: > 100 µM
KM12 colon
  TGI: > 100 µM
HOP-18 NSCLC
  TGI: > 100 µM
786-0 renal
  TGI: > 100 µM
MOLT-4 leukemia
  TGI: > 100 µM
NCI-H522 lung
  TGI: > 100 µM
NCI-H23 lung
  TGI: > 100 µM
A549 NSCLC
  TGI: > 100 µM
HT29 colon
  TGI: > 100 µM
SN12C renal
  TGI: > 100 µM
HCC-2998 colon
  TGI: > 100 µM
SNB-19 CNS
  TGI: > 100 µM
IGROV1 ovarian
  TGI: > 100 µM
SK-OV-3 ovarian
  TGI: > 100 µM
LOX IMVI melanoma
  TGI: > 100 µM
SW-620 colon
  TGI: > 100 µM
OVCAR-5 ovarian
  TGI: > 100 µM
ACHN renal
  TGI: > 100 µM
SF-295 CNS
  TGI: > 100 µM
KM20L2 colon
  TGI: > 100 µM
EKVX NSCLC
  TGI: > 100 µM
RXF-631 renal
  TGI: > 100 µM
SK-MEL-2 melanoma
  TGI: > 100 µM
XF 498 CNS
  TGI: > 100 µM
SNB-75 CNS
  TGI: > 100 µM
HOP-92 NSCLC
  TGI: > 100 µM
NCI-H226 lung
  TGI: > 100 µM
UACC-62 melanoma
  TGI: > 100 µM
HCT-15 colon
  TGI: > 100 µM
MALME-3M melanoma
  TGI: > 100 µM
OVCAR-8 ovarian
  TGI: > 100 µM
UACC-257 melanoma
  TGI: > 100 µM
CAKI-1 renal
  TGI: > 100 µM
OVCAR-3 ovarian
  TGI: > 100 µM
UO-31 renal
  TGI: > 100 µM
SK-MEL-5 melanoma
  TGI: > 100 µM
HCT-116 colon
  TGI: > 100 µM
RPMI-8226 leukemia
  TGI: > 100 µM
CCRF-CEM leukemia
  TGI: > 100 µM
M19-MEL melanoma
  TGI: > 100 µM
SK-MEL-28 melanoma
  TGI: > 100 µM
SNB-78 CNS
  TGI: > 100 µM
K-562 leukemia
  TGI: > 100 µM
TK-10 renal
  TGI: > 100 µM
SR leukemia
  TGI: > 100 µM
LXFL 529 NSCLC
  TGI: > 100 µM
DMS 273 small cell lung
  TGI: > 100 µM
U251 CNS
  TGI: > 100 µM
NCI-H460 lung
  TGI: > 100 µM
RXF 393 renal
  TGI: > 100 µM
COLO 205 colon
  TGI: > 100 µM
